# Test results: patent US10576101B2, “Roneparstat combined therapy of multiple myeloma” (Leadiant Biosciences SA, priority 2015, dated 2020)
# Like-named read-outs stand apart in the source and are kept apart here.
# Key:
# [1] = test system: CAG HPSE high cells; test: Experimental metastasis model of myeloma, roneparstat in vivo combination with bortezomib; set-up: species or system Mouse, CB. 17/Icr SCID; conditions: roneparstat 120 mg/kg/day s.c., bortezomib 0.5 mg/kg/twice a week i.p., two weeks, serum Day 21
# [2] = test system: a variety of cancer cell types; conditions: cited from earlier work
# [3] = test system: nonclinical tumor models, including multiple myeloma; conditions: cited from earlier work
# [4] = test system: diabetic nephropathy; conditions: mouse models of diabetic nephropathy; cited from earlier work
# [5] = test system: CAG HPSE high cells; type: in vivo, Mouse, CB. 17/Icr SCID
# [6] = test system: CAG HPSE high cells; type: in vivo, Mouse, CB. 17/Icr SCID; remark: listed apart in the source
# [7] = test system: HPSE-high cells; test: Cell viability by MTT assay, roneparstat with carfilzomib; type: cell-based, human; conditions: roneparstat 6.75 μM or carfilzomib 15 nM alone
# Source text: CAG human myeloma cell line was established at the Myeloma Institute for Research and Therapy (Little Rock, Ark.). CAG cells with modified levels of heparanase expression have been extensively characterized and include (a) heparanase-low (HPSE-low) cells prepared by transfection with empty vector; and (b) heparanase-high (HPSE-high) cells prepared by transfection with vector containing the cDNA for human heparanase. Although HPSE-high cells express a 4-fold higher level of heparanase than do the HPSE-low cells, the elevated levels of enzyme activity present in HPSE-high cells are in the same range as that present in the bone marrow of many myeloma patients (Kelly T. et al, Cancer Res 2003; 63:8749-56). […] The preparation of the CAG-HPSE high cells is described in Yang Y, et al, The Journal Of Biological Chemistry, Vol. 282, No. 18, pp. 13326-13333, May 4, 2007 (see in particular page 13327, left column, the paragraph beginning with “For transfections . . . ”).
# HPSE-high cells were seeded in serum free media overnight and then treated with 6.75 μM roneparstat (Rone) for 6 hours, washed and then treated with carfilzomib (CFZ) (15 nM) for 14 hours and viability was assessed by MTT assay. The MTT assay is a colorimetric assay for assessing cell viability, which takes its name from tetrazolium dye MTT (3-(4,5-dimethylthiazol-2-yl)-2,5-diphenyltetrazolium bromide). […]
# [8] = test system: multiple myeloma; conditions: high-dose 200 mg/m^2 followed by ASCT after VAD induction, patients younger than 65 years; cited from earlier work
# [9] = test system: proteasome; conditions: in animals; cited from earlier work
# [10] = test system: solid and hematologic tumor cells; conditions: cited from earlier work
# [11] = test system: models of multiple myeloma, hematologic, and solid tumors; conditions: cited from earlier work
# [12] = roneparstat 60 mg/kg/day s.c., melphalan 1 mg/kg/week i.p., two weeks, serum Day 21
molecule,measurement,setting,value
CC(C)C[C@H](NC(=O)[C@H](Cc1ccccc1)NC(=O)c1cnccn1)B(O)O [Bortezomib],% of animals with kappa levels (above detection limit),[1],75%
same,animals with detectable levels of human immunoglobulin light chain (detectable tumor burden),[1],8/10
same,cytotoxicity in vitro,[2],cytotoxic
same,tumor growth in vivo,[3],causes a delay in tumor growth
Roneparstat,% of animals with kappa levels (above detection limit),[1],70%
same,animals with detectable levels of human immunoglobulin light chain (detectable tumor burden),[1],6/8
same,extent of albuminuria and renal damage,[4],markedly decreased
same,% of animals with kappa levels (above detection limit),"[5]; mouse, in vivo",89%
same,animals with detectable levels of human immunoglobulin light chain (detectable tumor burden),"[5]; mouse, in vivo",8/9
same,animals with detectable tumor burden,"[6]; mouse, in vivo",3/10
same,"decrease of viability (MTT), agent administered alone",[7],neither roneparstat or carfilzomib provided significant results
N[C@@H](Cc1ccc(N(CCCl)CCCl)cc1)C(=O)O [Melphalan],survival,[8],5 years
same,% of animals with kappa levels (above detection limit),[5]; [12],70%
same,animals with detectable levels of human immunoglobulin light chain (detectable tumor burden),[5]; [12],7/10
same,animals with detectable tumor burden,"[6]; after initial melphalan treatment, PBS for the next two weeks",7/11
"CC(C)C[C@H](NC(=O)[C@H](CCc1ccccc1)NC(=O)CN1CCOCC1)C(=O)N[C@@H](Cc1ccccc1)C(=O)N[C@@H](CC(C)C)C(=O)[C@@]1(C)CO1 [Carfilzomib, (2S)—N—((S)-1-((S)-4-methyl-1-((R)-2-methyloxiran2-yl)-1-oxopentan-2-ylcarbamoyl)-2-phenylethyl)-2-((S)-2-(2-morpholinoacetamido)4-phenylbutanamido)-4-methylpentanamide]",proteasome activity in blood and tissue,[9],inhibited proteasome activity
same,antiproliferative and proapoptotic activities in vitro,[10],had antiproliferative and proapoptotic activities
same,tumor growth,[11],delayed tumor growth
same,"decrease of viability (MTT), agent administered alone",[7],neither roneparstat or carfilzomib provided significant results
